Measurements: ChEMBL document CHEMBL5625274, “Improved synthesis, molecular modeling and anti-inflammatory activity of new fluorinated dihydrofurano-naphthoquinone compounds” (Bioorg Med Chem Lett, 2024)
Several values for one entry are separate records, joined by “and”; a condition that tells them apart may be missing. Equal entries are not always repeated.

Key:
RAW264.7 [1] = experiment: cells; details: Mus musculus
RAW264.7 [2] = experiment: cells; details: Mus musculus; remark: listed apart in the source
in vitro [3] = details: mouse, RAW264.7 cells
in vitro [4] = details: mouse, RAW264.7 cells; at 32 µg/mL
in vitro [5] = details: mouse, RAW264.7 cells; at 8 µg/mL
in vitro [6] = details: mouse, RAW264.7 cells; at 2 µg/mL
in vitro [7] = details: mouse, RAW264.7 cells; at 0.5 µg/mL
Prostaglandin E synthase = biological target: T1, Prostaglandin E synthase (Homo sapiens, UniProt O14684)
T1 sequence (O14684 whole entry): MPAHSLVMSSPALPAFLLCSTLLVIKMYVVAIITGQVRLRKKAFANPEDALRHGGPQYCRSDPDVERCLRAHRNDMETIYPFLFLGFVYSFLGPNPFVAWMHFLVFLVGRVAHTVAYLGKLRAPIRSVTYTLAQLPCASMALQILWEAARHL

RAW264.7 [8] = experiment: cells; details: Mus musculus; remark: listed apart in the source

| SMILES | IC50 (RAW264.7 [1]) [nM] | IC50 (RAW264.7 [2]) [nM] | Ki (Prostaglandin E synthase) [nM] | IC50 (RAW264.7 [8]) | viability at 128 ug/mL (in vitro [3]) [%] | viability at 32 ug/mL (in vitro [4]) [%] | viability at 8 ug/mL (in vitro [5]) [%] | viability at 2 ug/mL (in vitro [6]) [%] | viability at 0.5 ug/mL (in vitro [7]) [%] |
| --- | --- | --- | --- | --- | --- | --- | --- | --- | --- |
| O=C1C2=C(C(=O)c3ccccc31)[C@@H](c1ccc(OC(F)F)c(O)c1)[C@H](C(=O)c1ccccc1)O2 | – | – | – | – | 2 | 5 | 15 | 46 | 71 |
| COc1ccc([C@@H]2C3=C(O[C@H]2C(=O)c2ccccc2)C(=O)c2ccccc2C3=O)cc1F | – | – | 241000 | 1.54 µM and 0.66 µg/mL | 38 | 41 | 51 | 60 | 71 |
| COc1ccc([C@@H]2C3=C(O[C@H]2C(=O)c2ccccc2)C(=O)c2ccccc2C3=O)c(F)c1 | – | – | – | – | 23 | 35 | 38 | 40 | 100 |
| O=C1C2=C(C(=O)c3ccccc31)[C@@H](c1ccc(O)cc1F)[C@H](C(=O)c1ccccc1)O2 | – | – | – | – | 3 | 15 | 19 | 22 | 29 |
| O=C1C2=C(C(=O)c3ccccc31)[C@@H](c1ccc(O)c(F)c1)[C@H](C(=O)c1ccccc1)O2 | – | – | – | – | 4 | 10 | 41 | 45 | 99 |
| O=C1C2=C(C(=O)c3ccccc31)[C@@H](c1ccccc1F)[C@H](C(=O)c1ccccc1)O2 | – | – | – | – | 0 | 15 | 20 | 32 | 81 |

More lines, main results first:

| IC50 (RAW264.7 [1]) [nM] | IC50 (RAW264.7 [2]) [nM] | Ki (Prostaglandin E synthase) [nM] | IC50 (RAW264.7 [8]) | SMILES | viability at 128 ug/mL (in vitro [3]) [%] | viability at 32 ug/mL (in vitro [4]) [%] | viability at 8 ug/mL (in vitro [5]) [%] | viability at 2 ug/mL (in vitro [6]) [%] | viability at 0.5 ug/mL (in vitro [7]) [%] |
| --- | --- | --- | --- | --- | --- | --- | --- | --- | --- |
| > 2900 | > 2900 | – | – | CCc1cc2c(o1)C(=O)c1ccccc1C2=O | – | – | – | – | – |
| – | – | – | 222 µM and 109 µg/mL | O=C1C2=C(C(=O)c3ccccc31)[C@@H](c1ccc(Oc3ccc(F)cc3)cc1)[C@H](C(=O)c1ccccc1)O2 | 29 | 99 | 99 | 99 | 100 |
| – | – | – | 3.52 µM and 1.57 µg/mL | COc1c(F)cc([C@@H]2C3=C(O[C@H]2C(=O)c2ccccc2)C(=O)c2ccccc2C3=O)cc1F | 22 | 51 | 64 | 67 | 85 |
| – | – | – | 15.8 µM and 6.28 µg/mL | O=C1C2=C(C(=O)c3ccccc31)[C@@H](c1ccc(F)cc1)[C@H](C(=O)c1ccccc1)O2 | 2 | 33 | 69 | 100 | 100 |
| – | – | – | > 268 µM and > 128 µg/mL | COc1ccc([C@@H]2C3=C(O[C@H]2C(=O)c2ccccc2)C(=O)c2ccccc2C3=O)c(C(F)(F)F)c1 | 40 | 100 | 100 | 100 | 100 |
| – | – | 184000 | 3.92 µM and 1.75 µg/mL | COc1cc(F)c([C@@H]2C3=C(O[C@H]2C(=O)c2ccccc2)C(=O)c2ccccc2C3=O)cc1F | 15 | 16 | 59 | 60 | 91 |
| – | – | – | > 276 µM and > 128 µg/mL | O=C1C2=C(C(=O)c3ccccc31)[C@@H](c1ccc(OC(F)(F)F)cc1)[C@H](C(=O)c1ccccc1)O2 | 34 | 70 | 100 | 100 | 100 |
| < 2900 | < 2900 | – | – | Cc1cc2c(o1)C(=O)c1ccccc1C2=O | – | – | – | – | – |
| > 2900 | > 2900 | – | – | CCCCc1cc2c(o1)C(=O)c1ccccc1C2=O | – | – | – | – | – |
